Source: ChEMBL document CHEMBL1201862, “PubChem BioAssay data set” (2004)
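Growth conditions: 96-well plates. Treatment: test compound, 48 hours, 5 concentrations. Analysis: linear interpolation between bracketing concentrations; unreached endpoints set to highest concentration. Here, GI50 denotes the concentration required for 50% inhibition of growth.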 Active and inactive are the calls of the source. No stated cut-off is given here; in the data, active = GI50 up to about 1.1 µM and inactive = higher.

Columns and labels:
Assay in all cases: NCI-60 cell line screen, 48 h
SF-268 = system: SF-268
SR = system: SR
NCI-H522 = system: NCI-H522
PC-3 = system: PC-3
UACC-257 = system: UACC-257
COLO 205 = system: COLO 205
M14 = system: M14
SW-620 = system: SW-620
NCI-H23 = system: NCI-H23
U-251 = system: U-251
SK-MEL-28 = system: SK-MEL-28
MDA-N = system: MDA-N
KM12 = system: KM12
OVCAR-3 = system: OVCAR-3
OVCAR-4 = system: OVCAR-4
HL-60 = system: HL-60
SK-MEL-2 = system: SK-MEL-2
HOP-92 = system: HOP-92
A498 = system: A498
SK-OV-3 = system: SK-OV-3

BrC1(c2ccccc2)C[n+]2c(-c3ccccc3)cc(-c3ccccc3)cc2-c2ccccc21 (stereo unspecified)
GI50 (SF-268): 0.409 µM (active) | GI50 (SR): 0.611 µM (active) | GI50 (NCI-H522): 0.384 µM (active) | GI50 (PC-3): 0.346 µM (active) | GI50 (UACC-257): 0.233 µM (active) | GI50 (COLO 205): 0.157 µM (active) | GI50 (M14): 0.499 µM (active) | GI50 (SW-620): 0.426 µM (active) | GI50 (NCI-H23): 1 µM (active) | GI50 (U-251): 0.226 µM (active) | GI50 (SK-MEL-28): 0.92 µM (active) | GI50 (MDA-N): 0.327 µM (active) | GI50 (KM12): 0.299 µM (active) | GI50 (OVCAR-3): 0.0489 µM (active) | GI50 (OVCAR-4): 0.977 µM (active) | GI50 (HL-60): 0.168 µM (active) | GI50 (SK-MEL-2): 0.317 µM (active) | GI50 (HOP-92): 0.664 µM (active) | GI50 (A498): 1.81 µM (inactive)

O=C1CC(C(OCc2ccccc2)C(OCc2ccccc2)C(COCc2ccccc2)OCc2ccccc2)CC(=O)N1 (stereo unspecified)
GI50 (SF-268): > 75 µM (inactive) | GI50 (SR): > 75 µM (inactive) | GI50 (PC-3): > 75 µM (inactive) | GI50 (UACC-257): > 100 µM (inactive) | GI50 (COLO 205): > 100 µM (inactive) | GI50 (M14): > 75 µM (inactive) | GI50 (SW-620): > 100 µM (inactive) | GI50 (NCI-H23): > 75 µM (inactive) | GI50 (SK-MEL-28): > 75 µM (inactive) | GI50 (MDA-N): > 75 µM (inactive) | GI50 (OVCAR-4): > 75 µM (inactive) | GI50 (HL-60): > 100 µM (inactive) | GI50 (A498): > 100 µM (inactive)

COc1ccc(C2=C(N)c3ncccc3C2=O)cc1
GI50 (SF-268): > 100 µM (inactive) | GI50 (SR): 69.7 µM (inactive) | GI50 (PC-3): > 100 µM (inactive) | GI50 (UACC-257): > 10 µM (inactive) | GI50 (COLO 205): 72.6 µM (inactive) | GI50 (M14): > 100 µM (inactive) | GI50 (SW-620): > 100 µM (inactive) | GI50 (NCI-H23): > 100 µM (inactive) | GI50 (U-251): > 100 µM (inactive) | GI50 (SK-MEL-28): > 100 µM (inactive) | GI50 (MDA-N): > 100 µM (inactive) | GI50 (KM12): > 100 µM (inactive) | GI50 (OVCAR-3): 91.2 µM (inactive) | GI50 (OVCAR-4): > 100 µM (inactive) | GI50 (SK-OV-3): > 100 µM (inactive) | GI50 (HL-60): 93.8 µM (inactive) | GI50 (SK-MEL-2): > 100 µM (inactive) | GI50 (HOP-92): > 10 µM (inactive) | GI50 (A498): > 100 µM (inactive)

c1ccc2c(Nc3ncco3)cccc2c1
GI50 (SF-268): > 10 µM (inactive) | GI50 (SR): 0.001 µM (active) | GI50 (NCI-H522): > 10 µM (inactive) | GI50 (PC-3): > 10 µM (inactive) | GI50 (UACC-257): > 10 µM (inactive) | GI50 (COLO 205): > 10 µM (inactive) | GI50 (M14): > 10 µM (inactive) | GI50 (SW-620): > 10 µM (inactive) | GI50 (NCI-H23): > 10 µM (inactive) | GI50 (U-251): > 10 µM (inactive) | GI50 (SK-MEL-28): > 10 µM (inactive) | GI50 (MDA-N): > 10 µM (inactive) | GI50 (KM12): > 10 µM (inactive) | GI50 (OVCAR-3): > 10 µM (inactive) | GI50 (OVCAR-4): > 10 µM (inactive) | GI50 (SK-OV-3): > 10 µM (inactive) | GI50 (HOP-92): > 10 µM (inactive) | GI50 (A498): > 10 µM (inactive)

O=S(=O)(O)c1c(/N=N/c2c(O)ccc3ccccc23)ccc2ccccc12
GI50 (SF-268): 51.4 µM (inactive) | GI50 (SR): > 100 µM (inactive) | GI50 (NCI-H522): 93.5 µM (inactive) | GI50 (PC-3): > 100 µM (inactive) | GI50 (UACC-257): > 100 µM (inactive) | GI50 (COLO 205): 70.1 µM (inactive) | GI50 (M14): > 100 µM (inactive) | GI50 (SW-620): > 100 µM (inactive) | GI50 (NCI-H23): > 100 µM (inactive) | GI50 (U-251): > 100 µM (inactive) | GI50 (SK-MEL-28): > 100 µM (inactive) | GI50 (MDA-N): > 100 µM (inactive) | GI50 (KM12): > 100 µM (inactive) | GI50 (OVCAR-3): > 100 µM (inactive) | GI50 (OVCAR-4): > 100 µM (inactive) | GI50 (SK-OV-3): 79.8 µM (inactive) | GI50 (SK-MEL-2): > 100 µM (inactive) | GI50 (HOP-92): > 100 µM (inactive) | GI50 (A498): > 100 µM (inactive)

NC(=O)C(=CNC(=S)Nc1ccc(S(=O)(=O)Nc2ccccn2)cc1)C(N)=O
GI50 (SF-268): > 100 µM (inactive) | GI50 (SR): 41.5 µM (inactive) | GI50 (NCI-H522): 50.5 µM (inactive) | GI50 (PC-3): > 100 µM (inactive) | GI50 (UACC-257): > 100 µM (inactive) | GI50 (COLO 205): > 100 µM (inactive) | GI50 (M14): > 100 µM (inactive) | GI50 (SW-620): 39.3 µM (inactive) | GI50 (NCI-H23): > 100 µM (inactive) | GI50 (U-251): > 100 µM (inactive) | GI50 (SK-MEL-28): > 100 µM (inactive) | GI50 (MDA-N): > 93.8 µM (inactive) | GI50 (KM12): > 100 µM (inactive) | GI50 (OVCAR-3): > 100 µM (inactive) | GI50 (OVCAR-4): > 100 µM (inactive) | GI50 (SK-OV-3): > 100 µM (inactive) | GI50 (SK-MEL-2): > 100 µM (inactive) | GI50 (HOP-92): > 100 µM (inactive) | GI50 (A498): > 100 µM (inactive)

CSc1ncc2c(n1)-c1ccccc1OC2N1CCOCC1 (stereo unspecified)
GI50 (SF-268): 87.9 µM (inactive) | GI50 (SR): 64.9 µM (inactive) | GI50 (NCI-H522): 34.4 µM (inactive) | GI50 (PC-3): 31.6 µM (inactive) | GI50 (UACC-257): 81.8 µM (inactive) | GI50 (COLO 205): > 100 µM (inactive) | GI50 (M14): > 100 µM (inactive) | GI50 (SW-620): > 100 µM (inactive) | GI50 (NCI-H23): > 100 µM (inactive) | GI50 (U-251): > 100 µM (inactive) | GI50 (MDA-N): > 100 µM (inactive) | GI50 (KM12): 53.3 µM (inactive) | GI50 (OVCAR-3): 56.2 µM (inactive) | GI50 (OVCAR-4): 21.7 µM (inactive) | GI50 (SK-OV-3): > 100 µM (inactive) | GI50 (HL-60): 27.3 µM (inactive) | GI50 (SK-MEL-2): > 100 µM (inactive) | GI50 (HOP-92): 41.9 µM (inactive) | GI50 (A498): 21.3 µM (inactive)
